# Read-outs that look alike come from different tables or passages of the source.
# Columns and labels:
# [1] = Hydrogen sulfide removal in distilled water (autoclave); conditions: distilled water, 5,000 ppm added, 80° C., 5 hours
# Description: 20 g of distilled water was put into a 100-mL autoclave equipped with a thermometer and a stirrer, and pressurized up to 0.3 MPa with a mixed gas having a composition of 1 vol % of hydrogen sulfide and 99 vol % of nitrogen introduced thereinto. This was stirred until the hydrogen sulfide concentration in the vapor phase part became constant, and then the hydrogen sulfide concentration in the vapor phase part in the autoclave was measured with a Kitagawa gas detector (here, a […] available from Komyo Rikagaku Kogyo K.K. was attached to the gas collector “AP-20”), and was 7,500 ppm by volume. Next, SAL was added thereto in an amount to be 5,000 ppm relative to the distilled water. The amount of SAL added was 1.19 mmol, and the amount of hydrogen sulfide existing in the apparatus was 0.10 mmol. Subsequently, the apparatus was heated up to 80° C. with stirring at 800 rpm to continue the reaction for 5 hours. After the reaction, the system was cooled down to room temperature, and the hydrogen sulfide concentration in the vapor phase part was measured and was 5,000 ppm by volume. The removal rate was 33%.
# The same test as in Example 2 was carried out except that acrolein was used in place of SAL. After the reaction, the hydrogen sulfide concentration in the vapor phase part was measured and was 5,000 ppm by volume. The removal rate was 33%.
# [2] = cited from earlier work
# [3] = format: physicochemical
# Description: 50 mL of each of SAL and acrolein was charged in 50-mL three-necked flask, and the contents were subjected to temperature rise to 50° C. in a nitrogen atmosphere. On the occasion when the content of each of SAL and acrolein immediately after the temperature rise was defined as 100%, a change of the content ratio was observed according to the calibration curve method by means of gas chromatography with an internal standard.
# [Gas Chromatography Analysis]
# Analysis Instrument: GC-14A (Available from Shimadzu Corporation) Detector: FID (Hydrogen Flame Ionization Detector)
# Column used: DB-1701 (length: 50 m, film thickness: 1 μm, inner diameter: 0.32 mm) (available from Agilent Technologies)
# Analysis conditions: Injection temperature: 250° C., detection temperature: 250° C.
# Temperature rise conditions: 70° C.→(temperature rise at 5° C./min)→250° C.
# Internal standard substance: Diglyme (diethylene glycol dimethyl ether)
# [4] = Hydrogen sulfide removal in kerosene (three-neck flask); conditions: 20 g kerosene, 1.5 g added, room temperature, 5 hours
# Description: 20 g of kerosene (available from FUJIFILM Wako Pure Chemical Corporation) was put into a 50-mL three-neck flask, and a mixed gas having a composition of 1 vol % of hydrogen sulfide and 99 vol % of nitrogen was made to circulate therein at a flow rate of 50 mL/min to thereby purge the vapor in the three-neck flask with stirring at 800 rpm. After 2 hours, the circulation of the mixed gas was stopped, then the three-neck flask was sealed up, and the hydrogen sulfide concentration in the vapor phase part in the three-neck flask was measured with a Kitagawa gas detector and was 8,200 ppm by volume. Next, 1.5 g of SAL was added thereto and reacted for 5 hours at room temperature with stirring the apparatus at 800 rpm. After the reaction, the hydrogen sulfide concentration in the vapor phase part in the three-neck flask was measured and was 5,300 ppm by volume. The removal rate was 35%.
# After the reaction, the hydrogen sulfide concentration in the vapor phase part in the three-neck flask was measured and was 6,600 ppm by volume. The removal rate was 20%.
# Rat = conditions: versus acrolein; cited from earlier work
# [5] = format: physicochemical; conditions: pH 1.7
# Description: Each of SAL and acrolein was dissolved in 0.5 mol/L of phosphoric acid buffer solutions having a pH different from each other, thereby preparing 0.1 wt % solutions. 50 mL of each of the solutions was charged in a sample vial in a nitrogen atmosphere and stored at 23±2° C. On the occasion when the content of each of SAL and acrolein at the time of preparation was defined as 100%, a change of the content ratio was observed according to the absolute calibration curve by means of high-performance liquid chromatography analysis.
# [Preparation of Phosphoric Acid Buffer Solution]
# pH 1.7: 4.9 g of 75% phosphoric acid and 7.8 g of sodium dihydrogen phosphate dihydrate were dissolved in 200 mL of distilled water.
# pH 6.2: 7.8 g of sodium dihydrogen phosphate dihydrate and 7.1 g of disodium hydrogen phosphate were dissolved in 200 mL of distilled water.
# pH 8.1: 0.3 g of sodium dihydrogen phosphate dihydrate and 13.9 g of disodium hydrogen phosphate were dissolved in 200 mL of distilled water.
# [High-Performance Liquid Chromatography Analysis]
# Analysis Instrument: Prominence System (Available from Shimadzu Corporation)
# Column used: Cadenza CD-C18 (length: […], inner diameter: 4.6 mm)
# Developing solution: H2O/MeOH=45/55 (volume ratio), H3PO4=1 mol/L
# [6] = 50° C., nitrogen atmosphere, 0 hour (defined as 100%)
# [7] = 50° C., nitrogen atmosphere, 2 hours elapsed
# [8] = 50° C., nitrogen atmosphere, 4 hours elapsed
# [9] = 50° C., nitrogen atmosphere, 6 hours elapsed
# [10] = 50° C., nitrogen atmosphere, 10 hours elapsed
compound,measurement,setting,value
"C=CC=O [Acrolein, acrolein, reference compound]",removal rate,[1],33%
same,Fire Service Act water solubility class,[2],water-insoluble
same,content ratio,[3]; [6],100.0%
same,content ratio,[3]; [7],99.5%
same,content ratio,[3]; [8],98.3%
same,content ratio,[3]; [9],98.1%
same,content ratio,[3]; [10],96.6%
same,ratio lost,"[3]; 50° C., nitrogen atmosphere, after 10 hours",3.4%
"CC(C)=CCCC(C)=CC=O [Citral, 3,7-dimethyl-2,6-octadienal]",removal rate,[4],20%
same,toxicity and safety (comparison in words),Rat,extremely low in the toxicity and safe as compared with acrolein
"CC(C)=CC=O [SAL, 3-methyl-2-butenal]",removal rate,[4],35%
same,pH stability (comparison in words),[5],extremely high in the pH stability as compared with acrolein
same,removal rate,[1],33%
same,Fire Service Act water solubility class,[2],water-insoluble
same,toxicity and safety (comparison in words),Rat,extremely low in the toxicity and safe as compared with acrolein
same,thermal stability (comparison in words),[3],extremely high in the thermal stability as compared with acrolein
same,content ratio,[3]; [6],100.0%
same,content ratio,[3]; [7],100.0%
same,content ratio,[3]; [8],100.0%
same,content ratio,[3]; [9],100.0%
same,content ratio,[3]; [10],99.9%

# — US11291947B2, “Composition for removing sulfur-containing compound” (KURARAY CO., LTD., priority 2016, dated 2022)
